Measurements as given in ChEMBL document CHEMBL5725801, “Fused heterocyclic compounds as CaM kinase inhibitors” (2018).

Experiment: CaMKII Cell-Based Activity: CaMKII activity in neonatal rat ventricular myocytes (NRVM) was measured by monitoring the phosphorylation level of phospholamban using high-content imaging. NRVMs were plated in a clear bottom 384-well plate in medium supplemented with 10% fetal bovine serum (FBS) and incubated at 37° C., 5% CO2 overnight. The medium was changed to a serum-free medium and compounds were dosed to the cells. The cells were incubated at 37° C., 5% CO2 for 4 hours and were then treated with 100 nM ATX-II (Alomone Labs) to activate CaMKII. 10 minutes after the addition of ATX-II, the cells were fixed with 4% formaldehyde followed by permeabilization with 0.1% triton X100. The fixed cells were stained with an anti-phospho-phospholamban primary antibody (Santa Cruz Biotechnology) and an Alexa488-labeled anti-rabbit IgG secondary antibody (Life Technologies Corporation) as well as Hoechst 33342 (Life Technologies Corporation). The cells were imaged using an ArrayScan VTI (Cellomics) and analyzed for cells containing a positive fluorescent signal at 485 nm, reported as % responder. The % responders were plotted against the compound concentration to determine the compounds EC50.

| EC50 [nM] | SMILES |
| --- | --- |
| 148 | CCN(CC)[C@@H](C)CNC(=O)c1cc(N[C@@H](C)C(N)=O)nc(-c2cnn3ccc(-c4cccs4)nc23)c1 |
| 150 | CCN(CC)[C@@H](C)CNC(=O)c1cc(-c2cnn3ccc(-c4cccs4)nc23)nc(N2CCNC2=O)c1 |
| 76.7 | CCC(CNC(=O)c1ccnc(-c2cnn3ccc(-c4ccccc4)nc23)c1)NCC1CC1 (centres undefined) |
| 73.1 | CCN[C@H](C)CNC(=O)c1ccnc(-c2cnn3ccc(-c4ccccc4)nc23)c1 |
| 16.2 | CCN(CC)[C@@H](C)CNC(=O)c1cc(-c2cnn3ccc(-c4cccs4)nc23)nc(N2CC[C@H]2C(=O)N2CC(F)C2)c1 |
| 66 | CC(C)C[C@@]1(CNC(=O)c2ccnc(-c3cnn4ccc(-c5cccs5)nc34)c2)CCCN1 |
| 21.3 | CCN(CC)[C@@H](C)CNC(=O)c1cc(-c2cnn3ccc(-c4cccs4)nc23)nc(N2CC[C@H]2C(=O)N2CCOCC2)c1 |
| 27 | CCN(CC)[C@@H](C)CNC(=O)c1cc(-c2cnn3ccc(-c4cccs4)nc23)nc(N2CC(NS(=O)(=O)Cc3ccon3)C2)c1 |
| 126 | O=C(NC[C@H]1CCN1)c1ccnc(-c2cnn3ccc(-c4cccs4)nc23)c1 |
| 146 | CCN(CC)[C@@H](C)CNC(=O)c1cc(-c2cnn3ccc(-c4ccccc4)nc23)nc(N2CC[C@H]2C(=O)NC)c1 |
| 8.15 | CCCNC(CC)CNC(=O)c1ccnc(-c2cnn3ccc(-c4ccccc4)nc23)c1 (centres undefined) |
| 217 | N[C@H]1CCCN(C(=O)c2ccnc(-c3cnn4ccc(-c5cccs5)nc34)c2)C1 |
| 287 | N[C@H]1CCC[C@@H]1NC(=O)c1ccnc(-c2cnn3ccc(-c4ccccc4)nc23)c1 |
| 147 | CCN(CC)[C@@H](C)CNC(=O)c1cc(N[C@H](C)C(=O)NC)nc(-c2cnn3ccc(-c4cccs4)nc23)c1 |
| 80.4 | CCN(CC)[C@@H](C)CNC(=O)c1cc(-c2cnn3ccc(-c4cccs4)nc23)nc(C(C)C)c1 |
| 166 | CC(C)N[C@@H](C)CNC(=O)c1ccnc(-c2cnn3ccc(-c4cccs4)nc23)c1 |
| 72.9 | CCN(CC)[C@@H](CO)CNC(=O)c1cc(-c2cnn3ccc(-c4cccs4)nc23)nc(N2CC[C@H]2C(=O)NC)c1 |
| 166 | CCN(CC)[C@@H](C)CNC(=O)c1cc(-c2cnn3ccc(-c4cccs4)nc23)nc(N2CCC[C@@H]2C(N)=O)c1 |
| 88.8 | CC(C)C(CNC(=O)c1ccnc(-c2cnn3ccc(-c4ccccc4)nc23)c1)NCC1CC1 (centres undefined) |
| 208 | C[C@@H]1CNCCN1C(=O)c1ccnc(-c2cnn3ccc(-c4cccs4)nc23)c1 |
| 17.7 | CCN(CC)[C@@H](C)CNC(=O)c1cc(-c2cnn3ccc(-c4cccs4)nc23)nc(N2CC(O)C2)c1 |
| 27.5 | CCN(CC)[C@@H](C)CNC(=O)c1cc(-c2cnn3ccc(-c4cccs4)nc23)nc(N2CC[C@H]2C(=O)NCC(F)F)c1 |
| 80.8 | O=C(c1ccnc(-c2cnn3ccc(-c4cccs4)nc23)c1)N1CCC[C@@H]2CCNC[C@@H]21 |
| 19.5 | CCN[C@@H](C)CNC(=O)c1cc(-c2cnn3ccc(-c4ccccc4)nc23)nc(C(C)C)c1 |
| 471 | COc1cc(C(=O)N2CC[C@H](N)C2)cc(-c2cnn3ccc(-c4ccccc4)nc23)n1 |
| 65.2 | CCCN[C@@H](C)CNC(=O)c1ccnc(-c2cnn3ccc(-c4cccs4)nc23)c1 |

| EC50 [nM] | SMILES |
| --- | --- |
| 152 | CC(C)NC(CNC(=O)c1ccnc(-c2cnn3ccc(-c4ccccc4)nc23)c1)C(C)C (centres undefined) |
| 143 | CC[C@]1(CNC(=O)c2ccnc(-c3cnn4ccc(-c5ccccc5)nc34)c2)CCCN1 |
| 65.5 | CCN(CC)[C@@H](C)CNC(=O)c1cc(-c2cnn3ccc(-c4cccs4)nc23)nc(N2CCC(O)C(F)(F)C2)c1 (some centres undefined) |
| 11.8 | CCCC(N)CNC(=O)c1ccnc(-c2cnn3ccc(-c4ccccc4)nc23)c1 (centres undefined) |
| 46 | CCN(CC)[C@@H](C)CNC(=O)c1cc(-c2cnn3ccc(-c4cccs4)nc23)nc(N2CCC(C)(O)CC2)c1 |
| 9.07 | CCN(CC)[C@@H](C)CNC(=O)c1cc(-c2cnn3ccc(-c4cccs4)nc23)nc(N2CC(C#N)C2)c1 |
| 211 | Cc1cc(C(=O)N2CCC[C@@H]2CN)cc(-c2cnn3ccc(-c4ccccc4)nc23)n1 |
| 29 | CCN(CC)[C@@H](C)CNC(=O)c1ccnc(-c2cnn3ccc(-c4ccccc4)nc23)c1 |
| 112 | CCN(CC)[C@@H](C)CNC(=O)c1cc(-c2cnn3ccc(-c4cccs4)nc23)nc(N2CCC[C@H]2CO)c1 |
| 3.75 | CCN(CC)[C@@H](C)CNC(=O)c1cc(-c2cnn3ccc(-c4cccs4)nc23)nc(N2CC(NC(=O)C3CC3)C2)c1 |
| 31.2 | CCCC(CNC(=O)c1ccnc(-c2cnn3ccc(-c4ccccc4)nc23)c1)N(CC)CC (centres undefined) |
| 6740 | CNC(=O)[C@@H]1CCN1c1cc(C(=O)NC[C@H](C)N)cc(-c2cnn3ccc(-c4cccs4)nc23)n1 |
| 40.4 | CCN(CC)c1cc(C(=O)NC[C@H](C)N(CC)CC)cc(-c2cnn3ccc(-c4cccs4)nc23)n1 |
| 115 | CCN(CC)[C@@H](C)CNC(=O)c1cc(OCCN(C)C)nc(-c2cnn3ccc(-c4cccs4)nc23)c1 |
| 20.3 | CCN(CC)[C@@H](C)CNC(=O)c1cc(-c2c[nH]nc2C(F)(F)F)nc(-c2cnn3ccc(-c4cccs4)nc23)c1 |
| 46.6 | CCN(CC)[C@@H](C)CNC(=O)c1cc(-c2cnn3ccc(-c4cccs4)nc23)nc(N2CCC(O)CC2)c1 |
| 12.3 | CCN(CC)[C@@H](C)CNC(=O)c1cc(-c2cnn(C3COC3)c2)nc(-c2cnn3ccc(-c4cccs4)nc23)c1 |
| 45.9 | CCN[C@H](CNC(=O)c1ccnc(-c2cnn3ccc(-c4ccccc4)nc23)c1)COc1ncccn1 |
| 22.3 | CCN(CC)[C@@H](C)CNC(=O)c1cc(-c2cnn3ccc(-c4cccs4)nc23)nc(N2CC[C@H]2C(=O)N2CCCC2)c1 |
| 306 | CCN(CC)[C@@H](C)CNC(=O)c1cc(NCC(N)=O)nc(-c2cnn3ccc(-c4cccs4)nc23)c1 |
| 29.9 | CCN(CC)[C@@H](C)CNC(=O)c1cc(N[C@H]2CCOC2)nc(-c2cnn3ccc(-c4cccs4)nc23)c1 |
| 386 | O=C(NC[C@@H]1C[C@H](F)CN1)c1ccnc(-c2cnn3ccc(-c4cccs4)nc23)c1 |
| 212 | CN(C)c1cc(C(=O)N2CC[C@H](N)C2)cc(-c2cnn3ccc(-c4cccs4)nc23)n1 |
| 115 | CCN(CC)[C@@H](C)CNC(=O)c1cc(NS(=O)(=O)C(C)C)nc(-c2cnn3ccc(-c4cccs4)nc23)c1 |
| 418 | CN(C)c1cc(C(=O)N2CCCC[C@H]2CN)cc(-c2cnn3ccc(-c4ccccc4)nc23)n1 |
| 66.2 | CCN(CC)[C@@H](C)CNC(=O)c1cc(O[C@@H]2CCOC2)nc(-c2cnn3ccc(-c4cccs4)nc23)c1 |

| EC50 [nM] | SMILES |
| --- | --- |
| 34.3 | CC[C@H](CNC(=O)c1cc(-c2cnn3ccc(-c4cccs4)nc23)nc(N2CC[C@H]2C(=O)NC)c1)N(CC)CC (single isomer, unassigned) |
| 34.8 | CCN[C@H](C)CNC(=O)c1ccnc(-c2cnn3ccc(-c4cccs4)nc23)c1 |
| 34 | CCN(CC)[C@@H](C)CNC(=O)c1cc(N[C@@H](C)CO)nc(-c2cnn3ccc(-c4cccs4)nc23)c1 |
| 86.8 | CCN(CC)[C@@H](C)CNC(=O)c1cc(OCCN2CCOCC2)nc(-c2cnn3ccc(-c4cccs4)nc23)c1 |
| 97.8 | CCNc1cc(C(=O)NC[C@H](C)N(CC)CC)cc(-c2cnn3ccc(-c4cccs4)nc23)n1 |
| 57.6 | CC[C@@H](CNC(=O)c1cc(-c2cnn3ccc(-c4cccs4)nc23)nc(N2CC[C@H]2C(=O)NC)c1)N(CC)CCO |
| 39.8 | CCN(CC)[C@@H](C)CNC(=O)c1cc(NC(=O)OC(C)C)nc(-c2cnn3ccc(-c4cccs4)nc23)c1 |
| 61.9 | CCN(CC)[C@@H](CO)CNC(=O)c1ccnc(-c2cnn3ccc(-c4ccccc4)nc23)c1 |
| 25 | CCN(CC)[C@@H](C)CNC(=O)c1cc(N)nc(-c2cnn3ccc(-c4ccccc4)nc23)c1 |
| 26.4 | CCN(CC)[C@@H](C)CNC(=O)c1cc(-c2cnn3ccc(-c4cccs4)nc23)nc(N2CC(NS(C)(=O)=O)C2)c1 |
| 11.2 | CCN(CC)[C@@H](C)CNC(=O)c1cc(-c2cnn3ccc(-c4cccs4)nc23)nc(N2CCCS2(=O)=O)c1 |
| 368 | CCN[C@@H](C)CNC(=O)c1cc(-c2cnn3ccc(-c4cccs4)nc23)nc(N2CC(C)(O)C2)c1 |
| 48.4 | CCN(CC)[C@@H](C)CNC(=O)c1cc(OC[C@H](C)OC)nc(-c2cnn3ccc(-c4cccs4)nc23)c1 |
| 243 | CCN[C@@H](CO)CNC(=O)c1ccnc(-c2cnn3ccc(-c4ccccc4)nc23)c1 |
| 232 | CCN(CC)[C@@H](C)CNC(=O)c1cc(NCC2(N3CCCC3)COC2)nc(-c2cnn3ccc(-c4cccs4)nc23)c1 |
| 113 | CCN[C@@H](C)CNC(=O)c1cc(N)nc(-c2cnn3ccc(-c4ccccc4)nc23)c1 |
| 96 | CCN(CC)[C@@H](C)CNC(=O)c1cc(-c2cnn3ccc(-c4cccs4)nc23)nc(N2CCNC(=O)C2)c1 |
| 53 | CCN(CC)[C@@H](C)CNC(=O)c1cc(-c2cnn3ccc(-c4cccs4)nc23)nc(N2CC[C@H]2C(=O)NCCF)c1 |
| 260 | CCN(CC)[C@@H](C)CNC(=O)c1cc(-c2cnn3ccc(-c4cccs4)nc23)nc(N2CCC[C@@H]2COC)c1 |
| 46.9 | CCN(CC)[C@@H](C)CNC(=O)c1cc(-c2cnn3ccc(-c4cccs4)nc23)nc(N2CC[C@@H](C(=O)NC)C2)c1 |
| 10 | CCN(CC)[C@@H](C)CNC(=O)c1cc(-c2cnn3ccc(-c4ccc(F)s4)nc23)nc(N2CC[C@H]2C(=O)NC)c1 |
| 21.6 | CCN(CC)[C@@H](C)CNC(=O)c1cc(-c2cnn3ccc(-c4cccs4)nc23)nc(N2CC(CO)C2)c1 |
| 70.4 | CCN(CC)[C@@H](C)CNC(=O)c1cc(-c2c[nH]nc2C)nc(-c2cnn3ccc(-c4cccs4)nc23)c1 |
| 56.1 | CCN[C@@H](C)CNC(=O)c1ccnc(-c2cnn3ccc(-c4ccccc4)nc23)c1 |

| SMILES | EC50 [nM] |
| --- | --- |
| CCC(N)CNC(=O)c1ccnc(-c2cnn3ccc(-c4cccs4)nc23)c1 (centres undefined) | 22.9 |
| COC1CN(c2cc(C(=O)N3CC4CCC(C3)NC4)cc(-c3cnn4ccc(-c5cccs5)nc34)n2)C1 (centres undefined) | 63.6 |
| COCCNc1cc(C(=O)N2CC3CCC(C2)NC3)cc(-c2cnn3ccc(-c4cccs4)nc23)n1 (centres undefined) | 124 |
